The record followed here is ChEMBL document CHEMBL3392978 (Eur J Med Chem, 2015).

The structures appear in SMILES notation.

For experiment [1], the system named is MDA-MB-453. The experiment in a line: Growth inhibition of human MDA-MB-453 cells at 10 uM after 72 hrs by MTT assay. Format: functional. Particulars: MDA-MB-453, 72 h, read-out: GI. (Tetrazolium dyes change colour on reduction, which living cells bring about.)
The subject of experiment [2] is MCF7. Briefly: Growth inhibition of human MCF7 cells at 10 uM after 72 hrs by MTT assay. The class given is functional. Particulars: MCF7, 72 h, read-out: GI.
For experiment [3], the system named is HepG2. The experiment in a line: Cytotoxicity against human HepG2 cells assessed as reduction in cell viability after 72 hrs by MTT assay. Format: functional, cell-based. The conditions noted are these: HepG2, 72 h.
In experiment [4] the test system is SW480. The experiment in a line: Growth inhibition of human SW480 cells at 10 uM after 72 hrs by MTT assay. The class given is functional. Particulars: SW480, 72 h, read-out: GI.
The test system of experiment [5] is NCI-H522. The experiment in a line: Growth inhibition of human NCI-H522 cells at 10 uM after 72 hrs by MTT assay. The class given is functional. The conditions noted are these: NCI-H522, 72 h, read-out: GI.
Experiment [6] concerns HepG2. The experiment in a line: Growth inhibition of human HepG2 cells at 10 uM after 72 hrs by MTT assay. The class given is functional. Particulars: HepG2, 72 h, read-out: GI.
The subject of experiment [7] is A-375. Briefly: Growth inhibition of human A375 cells at 10 uM after 72 hrs by MTT assay. Particulars: A-375, 72 h, read-out: GI. Format: functional.
Experiment [8] concerns NCI-H522. Briefly: Cytotoxicity against human NCI-H522 cells assessed as reduction in cell viability after 72 hrs by MTT assay. Format: functional, cell-based. Particulars: NCI-H522, 72 h.
Experiment [9] has as its system A-375. Briefly: Antitumor activity against human A375 cells xenografted in nude Ncr mouse assessed as reduction in tumor growth at 50 mg/kg, ig dosed once daily for 23 days. Particulars: A-375, po, 552 h, route intragastric, read-out: TGI. The class given is functional. (In general: Xenograft models place foreign cells or tissue in a host animal.)
For experiment [10], the system named is A-375. The experiment in a line: Cytotoxicity against human A375 cells assessed as reduction in cell viability after 72 hrs by MTT assay. The class given is functional, cell-based. The conditions noted are these: A-375, 72 h.
Experiment [11] concerns the target Serine/threonine-protein kinase B-raf (Homo sapiens, UniProt P15056). Briefly: Inhibition of BRAF (unknown origin) incubated for 15 mins by fluorescence based assay.
In experiment [12] the test system is MCF7. The experiment in a line: Cytotoxicity against human MCF7 cells assessed as reduction in cell viability after 72 hrs by MTT assay. Format: functional, cell-based. Particulars: MCF7, 72 h.
Experiment [13] concerns MDA-MB-453. Briefly: Cytotoxicity against human MDA-MB-453 cells assessed as reduction in cell viability after 72 hrs by MTT assay. The class given is functional, cell-based. Particulars: MDA-MB-453, 72 h.
Experiment [14] concerns SW480. Briefly: Cytotoxicity against human SW480 cells assessed as reduction in cell viability after 72 hrs by MTT assay. Format: functional, cell-based. Particulars: SW480, 72 h.

For orientation: IC50 means the concentration that inhibits the measured activity by half.

Sequence of Serine/threonine-protein kinase B-raf (P15056 whole entry): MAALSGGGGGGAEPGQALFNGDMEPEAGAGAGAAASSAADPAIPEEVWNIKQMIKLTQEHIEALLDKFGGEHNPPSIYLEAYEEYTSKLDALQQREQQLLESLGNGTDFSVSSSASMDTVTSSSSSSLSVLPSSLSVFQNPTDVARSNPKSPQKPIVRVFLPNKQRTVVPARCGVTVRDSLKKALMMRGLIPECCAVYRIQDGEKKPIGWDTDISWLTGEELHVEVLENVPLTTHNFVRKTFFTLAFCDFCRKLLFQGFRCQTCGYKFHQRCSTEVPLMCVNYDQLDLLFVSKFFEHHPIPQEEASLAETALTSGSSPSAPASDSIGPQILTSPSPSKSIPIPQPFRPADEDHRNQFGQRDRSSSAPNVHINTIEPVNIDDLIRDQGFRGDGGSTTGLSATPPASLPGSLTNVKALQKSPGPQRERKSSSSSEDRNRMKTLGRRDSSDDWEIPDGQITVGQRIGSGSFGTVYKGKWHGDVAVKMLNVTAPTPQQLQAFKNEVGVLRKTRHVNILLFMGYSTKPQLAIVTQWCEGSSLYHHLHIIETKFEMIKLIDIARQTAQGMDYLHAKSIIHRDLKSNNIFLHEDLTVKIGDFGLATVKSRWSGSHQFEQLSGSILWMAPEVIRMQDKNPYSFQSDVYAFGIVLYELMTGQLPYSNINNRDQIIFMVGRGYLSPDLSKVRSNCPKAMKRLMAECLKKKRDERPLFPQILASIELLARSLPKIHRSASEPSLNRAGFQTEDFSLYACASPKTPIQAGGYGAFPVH

For `O=C(Nc1ccc(Cl)c(Cl)c1)c1ccc(Cl)c(C(=O)Nc2ccc(-c3ncc[nH]3)nc2)c1`, the inhibition of growth at 10 µM was 36.3% with MDA-MB-453 [1]; 25% with MCF7 [2]; 13.4% in the experiment with SW480 [4]; -28.6% with NCI-H522 [5]; 57% with HepG2 [6]; 28.4% in the experiment with A-375 [7]. In the experiment on HepG2 [3], the IC50 is 3.97 µM.
Regarding `Cc1ccc(C(=O)Nc2ccc(Cl)c(C(=O)Nc3ccc(-c4ncc[nH]4)nc3)c2)cc1`, the inhibition of growth at 10 µM in the experiment with MDA-MB-453 [1] was 23.2%; in the experiment with MCF7 [2], 22.4%; with SW480 [4] it was 21.1%; in the experiment with NCI-H522 [5], 17.2%; in the experiment with HepG2 [6], -2.7%; with A-375 [7] it was 30.1%.
Consider `Cc1ccc(NC(=O)c2ccc(F)cc2)cc1C(=O)Nc1ccc(-c2ncc[nH]2)nc1`, for which the inhibition of growth at 10 µM in the experiment on MDA-MB-453 [1] amounted to 22%; in the experiment with MCF7 [2] it was 28.8%; in the experiment with SW480 [4], 10.1%; in the experiment on NCI-H522 [5], 6.3%; with HepG2 [6] it was 25%; with A-375 [7], 24.9%.
Consider `O=C(Nc1ccc(Cl)c(C(=O)Nc2ccc(-c3ncc[nH]3)nc2)c1)c1cccc(C(F)(F)F)c1`, for which the inhibition of growth at 10 µM is 46.1% in the experiment with MDA-MB-453 [1]; 39% in the experiment on MCF7 [2]; 26.9% in the experiment with SW480 [4]; -27.4% with NCI-H522 [5]; 39.5% in the experiment with HepG2 [6]; 44.5% with A-375 [7].
Consider `O=C(Nc1ccc(Cl)c(C(=O)Nc2ccc(-c3ncc[nH]3)nc2)c1)c1cccc(Cl)c1`, for which the inhibition of growth at 10 µM with MDA-MB-453 [1] was 10.7%; with MCF7 [2], 29.8%; with SW480 [4], 15.5%; in the experiment on NCI-H522 [5], -1.8%; in the experiment with HepG2 [6], 2.9%; with A-375 [7] it was 32.4%.
For `Cc1ccc(NC(=O)c2ccc(C(F)(F)F)cc2)cc1C(=O)Nc1ccc(-c2ncc[nH]2)nc1`, the inhibition of growth at 10 µM in the experiment on MDA-MB-453 [1] was found to be 26%; in the experiment on MCF7 [2] it was 36.4%; with SW480 [4], 28.1%; with NCI-H522 [5], 16.5%; in the experiment with HepG2 [6], 25.7%; in the experiment with A-375 [7], 40.4%.
With `CNC(=O)c1cc(Oc2ccc(NC(=O)Nc3ccc(Cl)c(C(F)(F)F)c3)cc2)ccn1` [SORAFENIB], the results for the IC50 with NCI-H522 [8], in the experiment with A-375 [10] and with HepG2 [3] were 19.3 µM, 16.2 µM and 5.74 µM, respectively. Further, the inhibition in vivo at 50 mg/kg in the experiment with A-375 [9] was 76.6%. The inhibition of growth at 10 µM with MDA-MB-453 [1] worked out at 36.9%; in the experiment on MCF7 [2], 23%; in the experiment on SW480 [4], 28.1%; with NCI-H522 [5] it was 39.4%; in the experiment on HepG2 [6], 59.9%; with A-375 [7], 44.1%.
For `COc1ccc(C(=O)Nc2ccc(C)c(C(=O)Nc3ccc(-c4ncc[nH]4)nc3)c2)cc1`, the IC50 in experiment [11] came out at 40.4 µM. The inhibition of growth at 10 µM turned out to be 23.5% in the experiment on MDA-MB-453 [1]; 36% in the experiment on MCF7 [2]; 26.5% in the experiment with SW480 [4]; 27.1% in the experiment on NCI-H522 [5]; 18.7% in the experiment on HepG2 [6]; 18.7% in the experiment on A-375 [7].
Turning to `O=C(Nc1ccc(Cl)cc1)c1ccc(Cl)c(C(=O)Nc2ccc(-c3ncc[nH]3)nc2)c1`, the inhibition of growth at 10 µM is 16.5% in the experiment on MDA-MB-453 [1]; 19.4% with MCF7 [2]; 12.7% with SW480 [4]; -20% with NCI-H522 [5]; 18.9% in the experiment with HepG2 [6]; 21.9% in the experiment on A-375 [7].
As for `Cc1ccc(C(=O)Nc2ccc(C)c(C(=O)Nc3ccc(-c4ncc[nH]4)nc3)c2)cc1`, the inhibition of growth at 10 µM in the experiment with MDA-MB-453 [1] came to 16.5%; in the experiment with MCF7 [2], 36.5%; in the experiment with SW480 [4] it was 26.3%; in the experiment with NCI-H522 [5] it was 31.8%; with HepG2 [6], 17.8%; in the experiment on A-375 [7], 37.6%.
For `O=C(Nc1ccc(Cl)c(C(=O)Nc2ccc(-c3ncc[nH]3)nc2)c1)c1ccc(Cl)cc1`, the inhibition of growth at 10 µM in the experiment on MDA-MB-453 [1] is 36.4%; in the experiment on MCF7 [2], 31.4%; in the experiment with SW480 [4], 13.4%; with NCI-H522 [5], -1.9%; in the experiment with HepG2 [6] it was 38.9%; with A-375 [7] it was 29.6%.
As for `COc1cccc(C(=O)Nc2ccc(C)c(C(=O)Nc3ccc(-c4ncc[nH]4)nc3)c2)c1`, in experiment [11], it took 2.47 µM to reach half-maximal inhibition (IC50). Moreover, the inhibition of growth at 10 µM was 18% in the experiment with MDA-MB-453 [1]; 27.9% in the experiment on MCF7 [2]; 17.6% in the experiment with SW480 [4]; 8.7% in the experiment on NCI-H522 [5]; -4.9% in the experiment on HepG2 [6]; 28.2% with A-375 [7].
In the case of `COc1cccc(C(=O)Nc2ccc(Cl)c(C(=O)Nc3ccc(-c4ncc[nH]4)nc3)c2)c1`, the inhibition of growth at 10 µM in the experiment with MDA-MB-453 [1] was 19.4%; in the experiment on MCF7 [2] it was 29.6%; in the experiment with SW480 [4], 17.6%; in the experiment on NCI-H522 [5], -2.9%; with HepG2 [6], 2.6%; in the experiment with A-375 [7], 34.9%.
Consider `O=C(Nc1cccc(Cl)c1)c1ccc(Cl)c(C(=O)Nc2ccc(-c3ncc[nH]3)nc2)c1`, for which the inhibition of growth at 10 µM is 11.6% with MDA-MB-453 [1]; 26% with MCF7 [2]; 5.8% in the experiment on SW480 [4]; -16.2% with NCI-H522 [5]; 19.4% in the experiment on HepG2 [6]; 26.1% in the experiment with A-375 [7].
Consider `O=C(Nc1ccc(Cl)c(C(=O)Nc2ccc(-c3ncc[nH]3)nc2)c1)c1ccc(F)cc1`, for which the inhibition of growth at 10 µM in the experiment with MDA-MB-453 [1] was 21.5%; in the experiment on MCF7 [2] it was 33.4%; in the experiment on SW480 [4] it was 14.9%; in the experiment on NCI-H522 [5] it was -8.8%; with HepG2 [6] it was -1.3%; in the experiment with A-375 [7] it was 30.1%.
For `Cc1cc(C(=O)Nc2ccc(Cl)c(C(=O)Nc3ccc(-c4ncc[nH]4)nc3)c2)ccc1Cl`, the IC50 with NCI-H522 [8] came to 2.09 µM; with MCF7 [12], 16.3 µM; in the experiment with A-375 [10] it was 12.6 µM; in the experiment on MDA-MB-453 [13], 8.76 µM; with SW480 [14] it was 3.57 µM; in the experiment with HepG2 [3] it was 11.5 µM. The inhibition of growth at 10 µM stood at 51.1% in the experiment on MDA-MB-453 [1]; 43.7% in the experiment with MCF7 [2]; 65.7% in the experiment on SW480 [4]; 66.7% with NCI-H522 [5]; 52.8% in the experiment on HepG2 [6]; 43.9% in the experiment on A-375 [7].
On to `Cc1ccc(NC(=O)c2ccc(Cl)c(C(F)(F)F)c2)cc1C(=O)Nc1ccc(-c2ncc[nH]2)nc1`, for which the results for the IC50 in the experiment with A-375 [10] and in the experiment with HepG2 [3] were 14.4 µM and 6.17 µM, respectively. Moreover, the inhibition of growth at 10 µM in the experiment on MDA-MB-453 [1] is 12.5%; with MCF7 [2], 30.5%; in the experiment on SW480 [4] it was 16.7%; with NCI-H522 [5], -11.4%; in the experiment with HepG2 [6], 47.9%; in the experiment on A-375 [7], 42.9%.
As to `Cc1cc(C(=O)Nc2ccc(C)c(C(=O)Nc3ccc(-c4ncc[nH]4)nc3)c2)ccc1Cl`, the inhibition of growth at 10 µM in the experiment on MDA-MB-453 [1] turned out to be 27.7%; with MCF7 [2], 36.2%; in the experiment with SW480 [4], 21.4%; with NCI-H522 [5], 12.6%; in the experiment on HepG2 [6], 32%; in the experiment on A-375 [7], 37.3%.
Take `Cc1ccc(NC(=O)c2cccc([N+](=O)[O-])c2)cc1C(=O)Nc1ccc(-c2ncc[nH]2)nc1`: the inhibition of growth at 10 µM worked out at 22.3% in the experiment with MDA-MB-453 [1]; 34.9% in the experiment with MCF7 [2]; 16.7% with SW480 [4]; 8.9% with NCI-H522 [5]; 11.1% in the experiment on HepG2 [6]; 17.6% with A-375 [7].
For `O=C(Nc1ccc(Cl)c(C(=O)Nc2ccc(-c3ncc[nH]3)nc2)c1)c1ccc(Cl)c(Cl)c1`, the IC50 with A-375 [10] came out at 9.39 µM; in the experiment with MDA-MB-453 [13] it was 11.4 µM; in the experiment on SW480 [14], 9.34 µM; with HepG2 [3] it was 15.2 µM. Besides, the inhibition of growth at 10 µM is 45.3% in the experiment with MDA-MB-453 [1]; 35.5% in the experiment on MCF7 [2]; 47.2% in the experiment with SW480 [4]; -21.1% with NCI-H522 [5]; 57% with HepG2 [6]; 46.1% with A-375 [7].
